From US8440710B2, “HSL inhibitors useful in the treatment of diabetes” (Hoffmann-La Roche Inc., priority 2009, dated 2013) come the findings set out here.

The test addresses T1, human HSL (Homo sapiens, UniProt Q05469).
T1 construct: generate a full length human HSL ORF with a 3′-His6 tag; made in house; host or cells: High 5 insect cells (baculovirus, pFast-BAC)
T1 sequence (Q05469 1-1076): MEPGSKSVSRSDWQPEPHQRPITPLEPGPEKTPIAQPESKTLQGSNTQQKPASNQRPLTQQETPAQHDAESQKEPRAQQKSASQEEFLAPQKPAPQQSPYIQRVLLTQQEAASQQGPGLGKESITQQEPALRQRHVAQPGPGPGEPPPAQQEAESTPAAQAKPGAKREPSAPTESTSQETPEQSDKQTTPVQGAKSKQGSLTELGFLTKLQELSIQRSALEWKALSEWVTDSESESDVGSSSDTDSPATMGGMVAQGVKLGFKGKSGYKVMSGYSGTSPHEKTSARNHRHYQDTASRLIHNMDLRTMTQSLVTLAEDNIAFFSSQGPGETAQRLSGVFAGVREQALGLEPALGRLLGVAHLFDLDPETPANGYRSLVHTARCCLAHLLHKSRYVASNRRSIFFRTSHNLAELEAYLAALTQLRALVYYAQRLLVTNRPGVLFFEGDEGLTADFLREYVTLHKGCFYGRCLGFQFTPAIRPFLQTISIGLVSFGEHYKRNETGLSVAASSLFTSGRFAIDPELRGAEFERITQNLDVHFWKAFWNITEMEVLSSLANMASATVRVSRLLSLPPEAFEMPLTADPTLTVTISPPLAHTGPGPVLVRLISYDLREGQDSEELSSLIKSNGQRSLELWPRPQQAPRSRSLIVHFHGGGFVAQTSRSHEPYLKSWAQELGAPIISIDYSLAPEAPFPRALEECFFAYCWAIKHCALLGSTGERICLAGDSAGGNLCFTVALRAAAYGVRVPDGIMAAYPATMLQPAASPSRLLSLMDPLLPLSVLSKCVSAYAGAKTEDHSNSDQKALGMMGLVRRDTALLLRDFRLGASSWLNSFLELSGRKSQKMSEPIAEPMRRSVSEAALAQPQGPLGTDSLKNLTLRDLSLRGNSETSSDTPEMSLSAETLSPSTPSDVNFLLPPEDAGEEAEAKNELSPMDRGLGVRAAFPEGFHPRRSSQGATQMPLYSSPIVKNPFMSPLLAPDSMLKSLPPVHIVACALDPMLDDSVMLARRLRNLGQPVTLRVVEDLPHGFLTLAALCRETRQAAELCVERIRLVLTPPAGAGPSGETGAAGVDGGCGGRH
Kind of test: Human Hormone-Sensitive Lipase (HSL) enzyme inhibition assay (colorimetric, DMPT substrate). It counts as biochemical. The conditions noted are these: human full length HSL-His6, 2,3-dimercapto-1-propanol tributyrate substrate, 37° C. 20 minutes, absorbance at 405 nm; read-out: HSL hum IC50. A digest of the protocol: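 Full-length human HSL with C-terminal His6, expressed in baculovirus-infected High 5 cells and Ni-NTA purified, was added (15 ug/ml stock) to 1.5 mM DMPT in 100 mM MOPS pH 7.2, 0.2 mg/ml fatty acid-free BSA containing compound. After 20 min at 37 °C, DTNB with SDS/Triton X-100 was added; A405 read after 15 min at RT.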

SMILES strings stand for the structures.

In the case of `O=C1N(c2ccc(C3CC3)cc2)CC[C@]12CC[C@](O)(COCC(F)(F)F)CC2` [Example 288, (5α,8β)-2-(4-Cyclopropyl-phenyl)-8-hydroxy-8-(2,2,2-trifluoro-ethoxymethyl)-2-aza-spiro[4.5]decan-1-one], the 50% inhibitory concentration (IC50) (usually the concentration that gives 50% inhibition) was 800 nM.

With `O=C1N(c2ccc(C3CC3)cc2)CC[C@]12CC[C@@](O)(COCC(F)(F)F)CC2` [Example 289, (5α,8α)-2-(4-Cyclopropyl-phenyl)-8-hydroxy-8-(2,2,2-trifluoro-ethoxymethyl)-2-aza-spiro[4.5]decan-1-one], the concentration for half-maximal inhibition (IC50) was determined as 20 nM.

With `O=C1N(c2ccc(OCC(F)(F)F)cc2)CC[C@]12CC[C@@](O)(COCCC1CC1)CC2` [Example 290, (5α,8α)-8-(2-Cyclopropyl-ethoxymethyl)-8-hydroxy-2-[4-(2,2,2-trifluoro-ethoxy)-phenyl]-2-aza-spiro[4.5]decan-1-one], the half-maximal inhibitory concentration (IC50) stood at 20 nM.

With `CC(C)CCOC[C@]1(O)CC[C@]2(CCN(c3ccc(OCC(F)(F)F)cc3)C2=O)CC1` [Example 291, (5α,8α)-8-Hydroxy-8-(3-methyl-butoxymethyl)-2-[4-(2,2,2-trifluoro-ethoxy)-phenyl]-2-aza-spiro[4.5]decan-1-one], the IC50 turned out to be 20 nM.

As to `CC(OC[C@]1(O)CC[C@]2(CCN(c3ccc(OCC(F)(F)F)cc3)C2=O)CC1)C(F)(F)F` (stereo partly drawn) [Example 292, (5α,8α)-8-Hydroxy-2-[4-(2,2,2-trifluoro-ethoxy)-phenyl]-8-(2,2,2-trifluoro-1-methyl-ethoxymethyl)-2-aza-spiro[4.5]decan-1-one], the IC50 was 10 nM.

As for `CSC[C@]1(O)CC[C@]2(CCN(c3ccc(OCC(F)(F)F)cc3)C2=O)CC1` [Example 293, (5α,8α)-8-Hydroxy-8-methylsulfanylmethyl-2-[4-(2,2,2-trifluoro-ethoxy)-phenyl]-2-aza-spiro[4.5]decan-1-one], the IC50 was 20 nM.

Consider `CCCSC[C@]1(O)CC[C@]2(CCN(c3ccc(OCC(F)(F)F)cc3)C2=O)CC1` [Example 294, (5α,8α)-8-Hydroxy-8-propylsulfanylmethyl-2-[4-(2,2,2-trifluoro-ethoxy)-phenyl]-2-aza-spiro[4.5]decan-1-one], for which the IC50 came out at 20 nM.

Turning to `O=C1N(c2ccc(OCC(F)(F)F)nc2)CC[C@]12CC[C@@](O)(COCC(F)F)CC2` [Example 295, (5α,8α)-8-(2,2-Difluoro-ethoxymethyl)-8-hydroxy-2-[6-(2,2,2-trifluoro-ethoxy)-pyridin-3-yl]-2-aza-spiro[4.5]decan-1-one], the concentration for half-maximal inhibition (IC50) was 40 nM.

For `C[C@H](Oc1ccc(N2CC[C@]3(CC[C@](O)(COCC(F)F)CC3)C2=O)cn1)C(F)(F)F` [Example 296, (5α,8β)-8-(2,2-Difluoro-ethoxymethyl)-8-hydroxy-2-[6-((S)-2,2,2-trifluoro-1-methyl-ethoxy)-pyridin-3-yl]-2-aza-spiro[4.5]decan-1-one], the IC50 came out at 550 nM.

With `C[C@H](Oc1ccc(N2CC[C@]3(CC[C@@](O)(COCC(F)F)CC3)C2=O)cn1)C(F)(F)F` [Example 297, (5α,8α)-8-(2,2-Difluoro-ethoxymethyl)-8-hydroxy-2-[6-((S)-2,2,2-trifluoro-1-methyl-ethoxy)-pyridin-3-yl]-2-aza-spiro[4.5]decan-1-one], the half-inhibitory concentration (IC50) was determined as 20 nM.

`C[C@H](Oc1ccc(N2CC[C@]3(CC[C@](O)(COCC(F)F)CC3)C2=O)cc1)C(F)(F)F` [Example 298, (5α,8β)-8-(2,2-Difluoro-ethoxymethyl)-8-hydroxy-2-[4-((S)-2,2,2-trifluoro-1-methyl-ethoxy)-phenyl]-2-aza-spiro[4.5]decan-1-one]: the IC50 was determined as 590 nM.

Consider `C[C@H](Oc1ccc(N2CC[C@]3(CC[C@@](O)(COCC(F)F)CC3)C2=O)cc1)C(F)(F)F` [Example 299, (5α,8α)-8-(2,2-Difluoro-ethoxymethyl)-8-hydroxy-2-[4-((S)-2,2,2-trifluoro-1-methyl-ethoxy)-phenyl]-2-aza-spiro[4.5]decan-1-one], for which the IC50 is 10 nM.

Consider `C[C@@H](Oc1ccc(N2CC[C@]3(CC[C@](O)(COCC(F)F)CC3)C2=O)cc1)C(F)(F)F` [Example 300, (5α,8β)-8-(2,2-Difluoro-ethoxymethyl)-8-hydroxy-2-[4-((R)-2,2,2-trifluoro-1-methyl-ethoxy)-phenyl]-2-aza-spiro[4.5]decan-1-one], for which the half-maximal inhibitory concentration (IC50) came to 300 nM.

Regarding `C[C@@H](Oc1ccc(N2CC[C@]3(CC[C@@](O)(COCC(F)F)CC3)C2=O)cc1)C(F)(F)F` [Example 301, (5α,8α)-8-(2,2-Difluoro-ethoxymethyl)-8-hydroxy-2-[4-((R)-2,2,2-trifluoro-1-methyl-ethoxy)-phenyl]-2-aza-spiro[4.5]decan-1-one], the 50% inhibitory concentration (IC50) is 10 nM.

Regarding `O=C1N(c2ccc(CC(F)(F)F)cc2)CC[C@]12CC[C@](O)(COCC(F)F)CC2` [Example 302, (5α,8β)-8-(2,2-Difluoro-ethoxymethyl)-8-hydroxy-2-[4-(2,2,2-trifluoro-ethyl)-phenyl]-2-aza-spiro[4.5]decan-1-one], the IC50 was found to be 510 nM.

In the case of `O=C1N(c2ccc(CC(F)(F)F)cc2)CC[C@]12CC[C@@](O)(COCC(F)F)CC2` [Example 303, (5α,8α)-8-(2,2-Difluoro-ethoxymethyl)-8-hydroxy-2-[4-(2,2,2-trifluoro-ethyl)-phenyl]-2-aza-spiro[4.5]decan-1-one], the half-inhibitory concentration (IC50) stood at 10 nM.

For the molecule `CS(=O)(=O)C[C@]1(O)CC[C@]2(CCN(c3ccc(OCC(F)(F)F)cc3)C2=O)CC1` [Example 304, (5α,8α)-8-Hydroxy-8-methanesulfonylmethyl-2-[4-(2,2,2-trifluoro-ethoxy)-phenyl]-2-aza-spiro[4.5]decan-1-one], the half-maximal inhibitory concentration (IC50) worked out at 330 nM.

In the case of `CCCS(=O)(=O)C[C@]1(O)CC[C@]2(CCN(c3ccc(OCC(F)(F)F)cc3)C2=O)CC1` [Example 305, (5α,8α)-8-Hydroxy-8-(propane-1-sulfonylmethyl)-2-[4-(2,2,2-trifluoro-ethoxy)-phenyl]-2-aza-spiro[4.5]decan-1-one], the IC50 is 30 nM.

For the molecule `CC(C)SC[C@]1(O)CC[C@]2(CCN(c3ccc(OCC(F)(F)F)cc3)C2=O)CC1` [Example 306, (5α,8α)-8-Hydroxy-8-isopropylsulfanylmethyl-2-[4-(2,2,2-trifluoro-ethoxy)-phenyl]-2-aza-spiro[4.5]decan-1-one], the half-maximal inhibitory concentration (IC50) was found to be 10 nM.

As for `CC(C)OC[C@]1(O)CC[C@@]2(CCN(c3ccc(O[C@@H](C)C(F)(F)F)cc3)C2=O)CC1` [Example 307, (5α,8β)-8-Hydroxy-8-isopropoxymethyl-2-[4-((S)-2,2,2-trifluoro-1-methyl-ethoxy)-phenyl]-2-aza-spiro[4.5]decan-1-one], the IC50 amounted to 200 nM.

As for `CC(C)OC[C@]1(O)CC[C@]2(CCN(c3ccc(O[C@@H](C)C(F)(F)F)cc3)C2=O)CC1` [Example 308, (5α,8α)-8-Hydroxy-8-isopropoxymethyl-2-[4-((S)-2,2,2-trifluoro-1-methyl-ethoxy)-phenyl]-2-aza-spiro[4.5]decan-1-one], the half-maximal inhibitory concentration (IC50) came out at 10 nM.

For the molecule `CC(C)OC[C@]1(O)CC[C@]2(CCN(c3ccc(O[C@@H](C)C(F)(F)F)nc3)C2=O)CC1` [Example 309, (5α,8α)-8-Hydroxy-8-isopropoxymethyl-2-[6-((S)-2,2,2-trifluoro-1-methyl-ethoxy)-pyridin-3-yl]-2-aza-spiro[4.5]decan-1-one], the IC50 turned out to be 10 nM.

With `CC(C)OC[C@]1(O)CC[C@]2(CCN(c3ccc(O[C@H](C)C(F)(F)F)cc3)C2=O)CC1` [Example 310, (5α,8α)-8-Hydroxy-8-isopropoxymethyl-2-[4-((R)-2,2,2-trifluoro-1-methyl-ethoxy)-phenyl]-2-aza-spiro[4.5]decan-1-one], the IC50 stood at 10 nM.

Consider `CCOC[C@]1(O)CC[C@]2(CCN(c3ccc(O[C@H](C)C(F)(F)F)nc3)C2=O)CC1` [Example 311, (5α,8α)-8-Ethoxymethyl-8-hydroxy-2-[6-((R)-2,2,2-trifluoro-1-methyl-ethoxy)-pyridin-3-yl]-2-aza-spiro[4.5]decan-1-one], for which the half-maximal inhibitory concentration (IC50) turned out to be 30 nM.

With `CCCOC[C@]1(O)CC[C@]2(CCN(c3ccc(O[C@H](C)C(F)(F)F)nc3)C2=O)CC1` [Example 312, (5α,8α)-8-Hydroxy-8-propoxymethyl-2-[6-((R)-2,2,2-trifluoro-1-methyl-ethoxy)-pyridin-3-yl]-2-aza-spiro[4.5]decan-1-one], the IC50 is 10 nM.
